Article PMC8096952, “Similar pharmacokinetics and pharmacodynamics of a new biosimilar and reference insulin aspart in healthy Chinese males” (Scientific Reports, 2021)
Like-named read-outs stand apart in the source and are kept apart here. Marks after values point to notes of the source that are not given here.

Assays:
[1] = in vivo; cited from earlier work
Source text: (§1) The maximum observed drug concentration and total drug exposure were higher than those in the previous report, which might ...

[2] = tested on: healthy Chinese males; settings: previous reports; cited from earlier work
Source text: as §1

[3] = Pharmacokinetics of insulin aspart (plasma IAsp) during euglycemic clamp study; assay type: in vivo, healthy Chinese males; settings: for t1/2: healthy Chinese males, single 0.2 U/kg s.c., fasted, plasma IAsp by UPLC-MS/MS, arithmetic mean (SD), N = 30; for Tmax: sc
Source text: (§2) There was a phase I, single-site, randomized, single-dose, two-period, crossover, euglycemic clamp study, evaluating the similarity in PK and PD of two IAsp products in healthy subjects (a new IAsp biosimilar RD10046 by HEC Pharm vs. NovoRapid by Novo Nordisk). In this study, subjects were randomly allocated to one of two treatment sequences (Fig. 1), in which they received 0.2 units/kg s.c. doses of two different IAsp products (as listed above) on two occasions.
(§3) Subjects were admitted to the phrase I unit on day-1 of each treatment period. On day 1, subjects received a single dose of the IAsp biosimilar RD10046 or NovoRapid after an overnight fast of at least 10 h, and a euglycemic clamp procedure that lasted up to 10 h postdose was performed. Subjects were discharged when they had had carbohydrates at the end of the euglycemic clamp. An interval of 7–14 days existed between the two doses.
(§4) The euglycemic clamp study was performed after inserting two catheters (an antecubital venous catheter for infusing 20% dextrose and a retrograde venous catheter in the hand heated in a box at 55–65℃ for measuring blood glucose). After collecting the basal blood glucose level [defined as the mean of the glucose measurement of several times (− 60, − 30, − 20, − 10 min) before dosing], the subjects received a 0.2 U/kg dose of NovoRapid or RD10046 by s.c. injection into a lifted abdominal skin-fold. Blood samples were obtained at the bedside for immediate determination of whole blood glucose concentrations and then monitored every 5 min from 0 to 240 min and every 10 min from 240 to 600 min after dosing. During the euglycemic clamp, the GIR was varied as necessary to maintain the blood glucose concentration within approximately ± 10% of the target level (defined as 0.28 mmol/L below the subject’s basal glucose level). The investigator made the GIR adjustment based on glucose measurements and experience. If the GIR fell to zero for at least 30 min, the clamp was discontinued. A 4-mL blood sample was collected at the following points for analysis of C-peptide and IAsp concentration: − 30, 0 (before dosing), 10, 20, 30, 40, 50, 60, 90, 120, 150, 180, 210, 240, 270, 300, 360, 420, 480 and 600 min. The baseline of C-peptide was defined as the mean value of two measurements at − 30 and 0 min.
(§5) Whole blood glucose concentrations were tested with a glucose analyzer (Biosen C_line GP+, Neckar Healthcare. Co. Ltd., Magdeburg, Germany) using an automated glucose oxidase technique. Serum C-peptide levels were analyzed using an ELISA (Cat. No. 80‐CPTHU‐E01.1; ALPCO, Salem, NH), and plasma IAsp concentrations were assessed by means of a validated, ultra-performance liquid chromatography-tandem mass spectrometry (UPLC-MS/MS) method at Covance Laboratories in Shanghai. The ranges of quantification were 20–3000 pmol/L for C-peptide and 0.2–10 ng/mL for IAsp.
The primary endpoint parameters of PK were shown as follows derived from time-profiles of IAsp: (1) maximal concentration of IAsp (Cmax), (2) the AUC of IAsp from 0 to 10 h (AUCIAsp, 0-10h). The time of Cmax (Tmax) and terminal half-life (t1/2) were also recorded. Those parameters mentioned above were calculated by PKsolver (version 2.0)[26]. Log-transformed AUCIAsp,0–10h and Cmax were evaluated with a linear mixed-effects model including subject as a random effect with the period, sequence, and treatment as fixed effects. For each parameter, the difference in the LS means along with the 90% CIs was back-transformed to produce the ratio of geometric means and the CI comparing treatments. The pharmacokinetic similarity was to be concluded if the 90% CIs for both AUCIAsp,0–10h and Cmax were completely contained within the interval of 0.80–1.25.
(§6) Time-related PK/PD parameters were evaluated by a nonparametric approach based on the Hodges-Lehmann method.

[4] = tested on: healthy Chinese males; assay: Safety evaluation (treatment-emergent adverse events); assay type: in vivo; settings: all causalities, single 0.2 U/kg s.c., N = 30
Source text: The safety assessments included the vital signs, physical examination, laboratory tests (complete blood cell count, liver and renal function, urinalysis, etc.), 12-lead ECG, injection site reaction, hypoglycemia, and other AEs.

[5] = tested on: healthy Chinese males; assay: Euglycemic clamp pharmacodynamics (glucose infusion rate); assay type: in vivo; settings: for Tearly,50% (time of half-maximum GIR before GIRmax) / Tlate,50% (time of half-maximum GIR after GIRmax) / Tonset (first time of blood glucose declining to target level, 0.28 mmol/L less than baseline) / tGIRmax (time of maximum glucose infusion rate) / AUCGIR,0–10h (total glucose infusion during the clamp) / GIRmax (maximum glucose infusion rate): healthy Chinese males, single 0.2 U/kg s.c., 10-h euglycemic clamp, N = 29 RD10046, 30 NovoRapid; for AUCGIR,0–10h (total glucose infusion during the clamp) / GIRmax (maximum glucose infusion rate): fasted, LOESS-smoothed GIR
Source text: as §2, §3, §4, §5
GIR profiles were smoothed by a locally weighted regression technique (LOESS, factor 0.10) using SAS software (version 9.4). The primary glucose-lowing effectiveness endpoints were the following parameters derived from the smoothed GIR profiles during the time interval from 0 to 10 h: (1) maximal GIR (GIRmax), (2) AUC of GIR from 0 to 10 h (AUCGIR, 0–10h). The time-related parameters including the time of GIRmax (tGIRmax), the onset of time (Tonset) (defined as the first time when BG declining at least 0.28 mmol/L from baseline), the time for GIR to rise from 0 to half of GIRmax (Tearly50%), and the time for GIR to decline from GIRmax to half of GIRmax (Tlate50%) were also recorded. A similar analysis was performed for GIRmax and AUCGIR, 0–10h.
as §6

[6] = tested on: C-peptide; assay: Serum C-peptide during euglycemic clamp (endogenous insulin secretion); assay type: in vivo; settings: healthy Chinese males, single 0.2 U/kg s.c., 10-h euglycemic clamp, ELISA, mean ± SD, N = 30
Description: The euglycemic clamp study was performed after inserting two catheters (an antecubital venous catheter for infusing 20% dextrose and a retrograde venous catheter in the hand heated in a box at 55–65℃ for measuring blood glucose). After collecting the basal blood glucose level [defined as the mean of the glucose measurement of several times (− 60, − 30, − 20, − 10 min) before dosing], the subjects received a 0.2 U/kg dose of NovoRapid or RD10046 by s.c. injection into a lifted abdominal skin-fold. Blood samples were obtained at the bedside for immediate determination of whole blood glucose concentrations and then monitored every 5 min from 0 to 240 min and every 10 min from 240 to 600 min after dosing. […]
as §5

insulin aspart [NovoRapid]
Tmax [1]: 48 to 70 min
GIRmax [2]: 6 to 9 mg/kg/min
total glucose infusion [2]: 1300 to 1500 mg/kg
t1/2 [3]: 38.0 (9.38) min
Tmax ([3]; in vivo): 50.2 (30.2,75.3) min
TEAE Blood bilirubin increased: number of AEs (number of subjects with AEs) [4]: 1 (1)
Tearly,50% (time of half-maximum GIR before GIRmax) ([5]; geometric mean (CV %)): 38 (22) min
Tlate,50% (time of half-maximum GIR after GIRmax) ([5]; geometric mean (CV %)): 226 (17) min
Tonset (first time of blood glucose declining to target level, 0.28 mmol/L less than baseline) ([5]; geometric mean (CV %)): 15 (23) min
tGIRmax (time of maximum glucose infusion rate) ([5]; geometric mean (CV %)): 104 (26) min
AUCGIR,0–10h (total glucose infusion during the clamp) ([5]; arithmetic mean): 1594 mg/kg
GIRmax (maximum glucose infusion rate) ([5]; arithmetic mean): 7.84 mg/kg/min
AUCGIR,0–10h (total glucose infusion during the clamp) ([5]; geometric mean (CV %)): 1542 (27) mg/kg
GIRmax (maximum glucose infusion rate) ([5]; geometric mean (CV %)): 7.64 (22) mg/kg/min
C-peptide suppression after injection (reduction from baseline) [6]: 30.7 ± 13.3%

insulin aspart [RD10046]
t1/2 [3]: 39.2 (13.1) min
AUCIAsp,0–10h, ratio of LS means (RD10046 divided by NovoRapid) ([3]; in vivo): 1.02^a
AUCIAsp,0–∞, ratio of LS means (RD10046 divided by NovoRapid) ([3]; in vivo): 1.02
Cmax, ratio of LS means (RD10046 divided by NovoRapid) ([3]; in vivo): 1.01^a
Tmax ([3]; in vivo): 50.3 (20.4,60.9) min
TEAE Electrocardiogram high voltage: number of AEs (number of subjects with AEs) [4]: 1 (1)
TEAE Hyperuricemia: number of AEs (number of subjects with AEs) [4]: 1 (1)
TEAE Induration: number of AEs (number of subjects with AEs) [4]: 1 (1)
TEAE Pain in extremity: number of AEs (number of subjects with AEs) [4]: 1 (1)
TEAE Platelet count increased: number of AEs (number of subjects with AEs) [4]: 1 (1)
TEAE Refraction disorder: number of AEs (number of subjects with AEs) [4]: 1 (1)
AUCGIR,0–10h, ratio of LS means (RD10046 divided by NovoRapid) ([5]; 90% CI in next column): 0.97^a
GIRmax, ratio of LS means (RD10046 divided by NovoRapid) ([5]; 90% CI in next column): 0.98^a
Tearly,50%, difference between medians (RD10046 - NovoRapid) ([5]; Hodges-Lehmann method): 0.13^b min
Tlate,50%, difference between medians (RD10046 - NovoRapid) ([5]; Hodges-Lehmann method): 0.39^b min
Tonset, difference between medians (RD10046 - NovoRapid) ([5]; Hodges-Lehmann method): 0^b min
tGIRmax, difference between medians (RD10046 - NovoRapid) ([5]; Hodges-Lehmann method): 15^b min
Tearly,50% (time of half-maximum GIR before GIRmax) ([5]; geometric mean (CV %)): 38 (21) min
Tlate,50% (time of half-maximum GIR after GIRmax) ([5]; geometric mean (CV %)): 227 (21) min
Tonset (first time of blood glucose declining to target level, 0.28 mmol/L less than baseline) ([5]; geometric mean (CV %)): 16 (28) min
tGIRmax (time of maximum glucose infusion rate) ([5]; geometric mean (CV %)): 113 (33) min
AUCGIR,0–10h (total glucose infusion during the clamp) ([5]; arithmetic mean): 1558 mg/kg
GIRmax (maximum glucose infusion rate) ([5]; arithmetic mean): 7.65 mg/kg/min
AUCGIR,0–10h (total glucose infusion during the clamp) ([5]; geometric mean (CV %)): 1493 (31) mg/kg
GIRmax (maximum glucose infusion rate) ([5]; geometric mean (CV %)): 7.44 (23) mg/kg/min
C-peptide suppression after injection (reduction from baseline) [6]: 30.2 ± 14.7%
